The target of the experiment is T1, KRAS-G12D protein (Homo sapiens, UniProt P01116, G12D).
T1 construct: host or cells: Aspc-1 cells
Put plainly: KRAS-G12D protein degradation study in Aspc-1 cells (western blot). It counts as cell-based. The following applies: for inhibition at 0.1 µM / inhibition at 1 µM: ASPC1, 24 h, 24 hours, read-out: Rate of protein degradation (KRAS^G12D); for inhibition at 0.1 µM: Aspc-1 cells treated with 0.1 μM compound; for inhibition at 1 µM: Aspc-1 cells treated with 1 μM compound. On the procedure: Aspc-1 (Cobioer, CBP60546) cells in exponential growth phase were inoculated on a 6-well cell culture plate (Corning, 3516) at density of 1E6/well; and cells in the plate were cultured in 37° C. incubator containing 5% carbon dioxide. The next day, test compounds were dissolved in DMSO (Sigma, RNBF5902) for the preparation of a 10 mM concentration stock solution. The stock solution was diluted with complete medium (RPMI-1640 supplemented with 10% fetal bovine serum, 1% penicillin-streptomycin), yielding working solutions of various concentrations. The plate, after the addition of compounds, was placed in a 5% carbon dioxide incubator, and incubated at 37° C. for 24 hours (final DMSO concentration was 0.1%). The plate was then removed from the incubator, and the cells were washed twice with precooled PBS (Gibco, 14190250), followed by addition of 80 μL RIPA lysis buffer (containing protease inhibitor (Invitrogen™, AM2696)) to each well. The adherent cells were scraped off with a cell scraper, and the cell lysate was transferred to a 1.5 mL centrifuge tube followed with a 30-minute incubation on ice. The lysate was then clarified with centrifugation at 14000 rpm for 10 min at 4° C. The supernatant was transferred into a new 1.5 mL centrifuge tube, and protein concentration was measured with BCA protein detection kit (Thermo Fisher, 23225). KRAS-G12D protein level was assessed by western blot.
A mixture of cell lysate (40 μL) and loading buffer (10 μL 5×SDS (Beyotime, P0015L)) was denatured in a water bath at 95° C. for 10 min. The denatured protein sample, at 30 μL/well, was loaded into the corresponding well of a 4-20% Bis-Tris gel (Kingsley, M00656). Protein samples were initially electrophoresed at 80 V for 30 minutes, followed by 120 V for 40 minutes, until the bromophenol blue strip ran to an appropriate position. After electrophoresis, iBlot2 (Life Technologies, IB21001) was used to transfer the separated samples onto PVDF film. The PVDF membrane was washed with double-distilled water and then blocked in TBST (Thermo Scientific, 28360) buffer containing 5% non-fat milk, for 2 hours. Blocked membrane was rinsed with tris-buffered saline tween-20 (Thermo Scientific, 28360, TBST) three times, 10 minutes each. Membrane was then incubated with 1:1000 diluted KRAS primary antibody (CST, cat #14429S) overnight at 4° C. Membrane was rinsed as described previously followed by 1 hour incubation of secondary antibody at room temperature. After washing the film three times with TBST, ECL color developing solution was applied, and image was captured with Biorad Chemi Doc gel imager. The band gray value was quantified (Image Lab), and protein degradation level was calculated according to the following formula:
Level of RAS protein expression=(RAS-compound/GAPDH)/(RAS-DMSO/GAPDH)
Level of degradation (%)=(1−Rate of RAS protein expression)×100
The symbols “−”, “+”, “++”, and “+++” indicate that the degradation level of KRAS^G12D protein induced by the test compounds was 10% or less, 11 to 30%, 31 to 60%, and greater than 60%, respectively.
Half-maximum degradation concentrations (DC50s) of exemplary test compounds were calculated using GraphPad Prism and their values are shown in Table 6. The symbols “++++”, “+++”, “++” and “+” indicate DC50 equal or less than 10 nM, 11-50 nM, 51-100 nM, and 101-200 nM, respectively.

The structures appear in SMILES notation. Bounds are passed on as bounds.

T1 sequence (P01116 1-188 isoform P01116-2 G12D): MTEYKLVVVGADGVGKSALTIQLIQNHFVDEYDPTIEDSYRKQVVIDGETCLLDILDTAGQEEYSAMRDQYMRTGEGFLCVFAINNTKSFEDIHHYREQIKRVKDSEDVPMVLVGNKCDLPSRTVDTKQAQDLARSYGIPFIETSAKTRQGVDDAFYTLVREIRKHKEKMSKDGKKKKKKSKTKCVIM

Regarding `C#Cc1c(F)ccc2cc(O)cc(-c3ncc4c(N5CC6CCC(C5)N6)nc(OC[C@@H]5C[C@@H](NC(=O)C6(C(=O)N7CCC(c8ccc9c(C%10CCC(=O)NC%10=O)nn(C)c9c8)CC7)CC6)CN5C)nc4c3F)c12` (stereo in doubt) [Compound 96], the inhibition at 0.1 µM fell in the range of 11 to 30%. For the compound `C#Cc1c(F)ccc2cc(O)cc(-c3ncc4c(N5CC6CCC(C5)N6)nc(OC5CCN(CCCCCCCCCC(=O)N6CCN(C(=O)C[C@H](NC(=O)[C@@H]7CC(O)CN7C(=O)[C@@H](NC(=O)C7(F)CC7)C(C)(C)C)c7ccc(-c8scnc8C)cc7)CC6)C5)nc4c3F)c12` (stereo in doubt) [Compound 105], the inhibition at 0.1 µM was in the range of 31 to 60%. As for `C#Cc1c(F)ccc2cc(O)cc(-c3ncc4c(N5CC6CCC(C5)N6)nc(OCCCN5CCN(CCCCCC(=O)N[C@H](C(=O)N6C[C@H](O)C[C@H]6C(=O)NCc6ccc(-c7scnc7C)cc6)C(C)(C)C)CC5)nc4c3F)c12` [Compound 28], the inhibition at 1 µM lay within 11 to 30%. On the same count and under the same terms, with `C#Cc1c(F)ccc2cc(O)cc(-c3ncc4c(N5CC6CCC(C5)N6)nc(OCCCN5CCN(CCCC(=O)N[C@H](C(=O)N6C[C@H](O)C[C@H]6C(=O)NCc6ccc(-c7scnc7C)cc6)C(C)(C)C)CC5)nc4c3F)c12` [Compound 30] the figure was 11 to 30%; with `C#Cc1c(F)ccc2cc(O)cc(-c3ncc4c(N5CC6CCC(C5)N6)nc(OC5CCN(CCOCCOCC(=O)N[C@H](C(=O)N6C[C@H](O)C[C@H]6C(=O)NCc6ccc(-c7scnc7C)cc6)C(C)(C)C)CC5)nc4c3F)c12` [Compound 53], 11 to 30%.

As to `C#Cc1c(F)ccc2cc(O)cc(-c3ncc4c(N5CC6CCC(C5)N6)nc(OC5CCN(CCOCCOCCOCC(=O)N[C@H](C(=O)N6C[C@H](O)C[C@H]6C(=O)NCc6ccc(-c7scnc7C)cc6)C(C)(C)C)CC5)nc4c3F)c12` [Compound 54], the inhibition at 1 µM was not above 10%. Turning to `C#Cc1c(F)ccc2cc(O)cc(-c3ncc4c(N5CC6CCC(C5)N6)nc(OC5CCN(CCCCCCCCCCC(=O)N[C@H](C(=O)N6C[C@H](O)C[C@H]6C(=O)N[C@@H](C)c6ccc(-c7scnc7C)cc6)C(C)(C)C)C5)nc4c3F)c12` (some centres unmarked) [Compound 55], the inhibition at 0.1 µM was more than 60% and the inhibition at 1 µM is more than 60%. As to `C#Cc1c(F)ccc2cc(O)cc(-c3ncc4c(N5CC6CCC(C5)N6)nc(OCC5CCN(CCCCCCCCCCC(=O)N[C@H](C(=O)N6C[C@H](O)C[C@H]6C(=O)N[C@@H](C)c6ccc(-c7scnc7C)cc6)C(C)(C)C)C5)nc4c3F)c12` (some centres unmarked) [Compound 56], the inhibition at 0.1 µM was 31 to 60% and the inhibition at 1 µM was more than 60%.

As for `C#Cc1c(F)ccc2cc(O)cc(-c3ncc4c(N5CC6CCC(C5)N6)nc(OCC5CCN(CCCCCCCCCCC(=O)N6CCC(c7ccc8c(C9CCC(=O)NC9=O)nn(C)c8c7)CC6)C5)nc4c3F)c12` (centres unmarked) [Compound 57], the inhibition at 0.1 µM was more than 60% and the inhibition at 1 µM is more than 60%.

For `CCc1c(F)ccc2cc(O)cc(-c3ncc4c(N5CC6CCC(C5)N6)nc(OCC56CCCN5[C@@H](COC(=O)NCCOCCOCCC(=O)N[C@H](C(=O)N5C[C@H](O)C[C@H]5C(=O)N[C@@H](C)c5ccc(-c7scnc7C)cc5)C(C)(C)C)CC6)nc4c3F)c12` (some centres unmarked) [Compound 58], the inhibition at 0.1 µM is 11 to 30% and the inhibition at 1 µM was 31 to 60%. Turning to `C#Cc1c(F)ccc2cc(O)cc(-c3ncc4c(N5CC6CCC(C5)N6)nc(OCCCN5CCN(CC(=O)N6CCN(c7ccc8c(c7)C(=O)N(C7CCC(=O)NC7=O)C8=O)CC6)CC5)nc4c3F)c12` (centres unmarked) [Compound 59], the inhibition at 0.1 µM is not above 10% and the inhibition at 1 µM is not above 10%. For `C#Cc1c(F)ccc2cc(O)cc(-c3ncc4c(N5CC6CCC(C5)N6)nc(OCCCN5CCN(C(=O)CN6CCN(c7ccc8c(c7)C(=O)N(C7CCC(=O)NC7=O)C8=O)CC6)CC5)nc4c3F)c12` (centres unmarked) [Compound 60], the inhibition at 0.1 µM is not above 10% and the inhibition at 1 µM lay in the range of 11 to 30%. As to `C#Cc1c(F)ccc2cc(O)cc(-c3ncc4c(N5CC6CCC(C5)N6)nc(OCCCN5CCN(C(=O)CN6CCN(c7cccc8c7C(=O)N(C7CCC(=O)NC7=O)C8=O)CC6)CC5)nc4c3F)c12` (centres unmarked) [Compound 61], the inhibition at 0.1 µM was not above 10% and the inhibition at 1 µM was not above 10%. For `C#Cc1c(F)ccc2cc(O)cc(-c3ncc4c(N5CC6CCC(C5)N6)nc(OCCCN5CCN(CC(=O)N6CCN(c7cccc8c7C(=O)N(C7CCC(=O)NC7=O)C8=O)CC6)CC5)nc4c3F)c12` (centres unmarked) [Compound 62], the inhibition at 0.1 µM was not above 10% and the inhibition at 1 µM was not above 10%. As to `C#Cc1c(F)ccc2cc(O)cc(-c3ncc4c(N5CC6CCC(C5)N6)nc(OCCCN5CCN(CC(=O)N6CCN(C(=O)C[C@H](NC(=O)[C@@H]7C[C@@H](O)CN7C(=O)[C@@H](NC(=O)C7(F)CC7)C(C)(C)C)c7ccc(-c8scnc8C)cc7)CC6)CC5)nc4c3F)c12` [Compound 63], the inhibition at 0.1 µM was not above 10% and the inhibition at 1 µM is 11 to 30%. Consider `C#Cc1c(F)ccc2cc(O)cc(-c3ncc4c(N5CC6CCC(C5)N6)nc(OCCCN5CCN(C(=O)C[C@H](NC(=O)[C@@H]6C[C@@H](O)CN6C(=O)[C@@H](NC(=O)C6(F)CC6)C(C)(C)C)c6ccc(-c7scnc7C)cc6)CC5)nc4c3F)c12` [Compound 64], for which the inhibition at 0.1 µM is not above 10% and the inhibition at 1 µM lay in the range of 11 to 30%. The matching figures for `CCc1c(F)ccc2cc(O)cc(-c3ncc4c(N5CC6CCC(C5)N6)nc(OCC56CCCN5[C@@H](COC(=O)NCCCCC(=O)N[C@H](C(=O)N5C[C@H](O)C[C@H]5C(=O)N[C@@H](C)c5ccc(-c7scnc7C)cc5)C(C)(C)C)CC6)nc4c3F)c12` (some centres unmarked) [Compound 67]: not above 10% and 31 to 60%. The matching figures for `CCc1c(F)ccc2cc(O)cc(-c3ncc4c(N5CC6CCC(C5)N6)nc(OCC56CCCN5[C@@H](COC(=O)NCCCCCCCC(=O)N[C@H](C(=O)N5C[C@H](O)C[C@H]5C(=O)N[C@@H](C)c5ccc(-c7scnc7C)cc5)C(C)(C)C)CC6)nc4c3F)c12` (some centres unmarked) [Compound 68]: 31 to 60% and more than 60%. Take `C#Cc1c(F)ccc2cc(O)cc(-c3ncc4c(N5CC6CCC(C5)N6)nc(OC5CCN(CC(=O)N6CCN(C(=O)C[C@H](NC(=O)[C@@H]7C[C@@H](O)CN7C(=O)[C@@H](NC(=O)C7(F)CC7)C(C)(C)C)c7ccc(-c8scnc8C)cc7)CC6)CC5)nc4c3F)c12` [Compound 71]: the inhibition at 0.1 µM was not above 10%. Regarding `C#Cc1c(F)ccc2cc(O)cc(-c3ncc4c(N5CC6CCC(C5)N6)nc(OCCCN5CCC(C(=O)N6CCC(c7ccc8c(C9CCC(=O)NC9=O)nn(C)c8c7)CC6)CC5)nc4c3F)c12` (centres unmarked) [Compound 72], the inhibition at 0.1 µM is more than 60% and the inhibition at 1 µM is more than 60%.

As for `C#Cc1c(F)ccc2cc(O)cc(-c3ncc4c(N5CC6CCC(C5)N6)nc(OCCCN5CCN(CCC(=O)C6CCC(c7ccc8c(C9CCC(=O)NC9=O)nn(C)c8c7)CC6)CC5)nc4c3F)c12` (centres unmarked) [Compound 74], the inhibition at 0.1 µM lay within 31 to 60%. For orientation: DC50 means the concentration giving 50% degradation. On to `C#Cc1c(F)ccc2cc(O)cc(-c3ncc4c(N5CC6CCC(C5)N6)nc(OCCCN5CCC(C(=O)N6CCC(N7CCC(c8ccc9c(C%10CCC(=O)NC%10=O)nn(C)c9c8)CC7)CC6)CC5)nc4c3F)c12` (centres unmarked) [Compound 75], for which the inhibition at 0.1 µM was more than 60%. For the setting “Aspc-1 cells, read-out: DC50 of test compound-induced KRAS^G12D protein degradation”, the DC50 was less than 10 nM. For `C#Cc1c(F)ccc2cc(O)cc(-c3ncc4c(N5CC6CCC(C5)N6)nc(OC5CCN(CCCCCCCCOc6cc(-c7ncsc7C)ccc6CNC(=O)[C@@H]6C[C@@H](O)CN6C(=O)[C@@H](NC(=O)C6(F)CC6)C(C)(C)C)CC5)nc4c3F)c12` [Compound 76], the inhibition at 0.1 µM is not above 10%. Regarding `C#Cc1c(F)ccc2cc(O)cc(-c3ncc4c(N5CC6CCC(C5)N6)nc(OC5CCN(CCCCCCCCCCOc6cc(-c7ncsc7C)ccc6CNC(=O)[C@@H]6C[C@@H](O)CN6C(=O)[C@@H](NC(=O)C6(F)CC6)C(C)(C)C)CC5)nc4c3F)c12` [Compound 77], the inhibition at 0.1 µM was not above 10%.

Values taken from US20230321253A1, “BIFUNCTIONAL COMPOUNDS AND PHARMACEUTICAL USES THEREOF” (RISEN (SUZHOU) PHARMA TECH CO., LTD., priority 2022, published 2023).
